Data on ten molecules can be found in paper PMC10179972, “New Hybrid Tetrahydropyrrolo[3,2,1-ij]quinolin-1-ylidene-2-thioxothiazolidin-4-ones as New Inhibitors of Factor Xa and Factor XIa: Design, Synthesis, and In Silico and Experimental Evaluation” (Molecules, 2023).

Where only a bound is given, the exact number is not on record here.

Assay [1] addresses T1, factor Xa (Homo sapiens, UniProt P00742).
T1 construct: followed by the addition of factor Xa (final concentration, 2.5 nmol·L^–1)
As to the kind of experiment: Inhibition of factor Xa, kinetics of hydrolysis of chromogenic substrate S2765. It counts as biochemical. Conditions: 30 μM compound; factor Xa 2.5 nmol/L, S2765 200 μmol/L, pH 8.0; read-out: Percent Inhibition at 30 μM, Xa. Here is the method: We measured the kinetics of the hydrolysis of the specific substrates S2765 or S2366 by factors Xa and XIa, respectively, in the buffer solution and in the presence of various concentrations of compounds.
(§1) A specific low-molecular-weight chromogenic substrate, S2765 (Z-D-Arg-Gly-Arg-pNA·2HCl), was used in the case of factor Xa, while the substrate S2366 (pyroGlu-Pro-ArgpNA·HCl) (both substrates from Chromogenix, USA) was used for factor XIa.
A buffer containing 140 mM NaCl, 20 mM HEPES, and 0.1% PEG 6000 (pH 8.0) was placed in the wells of a 96-well plate, followed by the addition of factor Xa (final concentration, 2.5 nmol·L^–1) or XIa (final concentration 0.8 nmol·L^–1), the substrate S2765 (final concentration, 200 μmol·L^–1) or S2366 (final concentration, 200 μmol·L^–1), and a solution of the test compound in DMSO (final concentration, 30 μmol·L^–1; the DMSO content in the well was no more than 2%). […] The initial rate of substrate degradation was determined from the initial slope of the 4-nitroaniline-formation curve. The rate of substrate degradation by the enzyme in the presence of the inhibitor was expressed as a percentage relative to the rate of substrate degradation in the absence of the inhibitor. The data obtained were processed using GraphPad Prism and OriginPro 8 software.

The target of assay [2] is T2, factor XIa (Homo sapiens, UniProt P03951). As to the kind of experiment: Inhibition of factor XIa, kinetics of hydrolysis of chromogenic substrate S2366. It counts as biochemical. Conditions: 30 μM compound; factor XIa 0.8 nmol/L, S2366 200 μmol/L, pH 8.0; read-out: Percent Inhibition at 30 μM, XIa. Here is the method: Compounds 12, 14 and 16 were evaluated for their anticoagulant activity against factors Xa and Xia, and the results are presented in Table 1. For the best Xa and XIa inhibitors, additional measurements were performed to determine the IC50 values. We measured the kinetics of the hydrolysis of the specific substrates S2765 or S2366 by factors Xa and XIa, respectively, in the buffer solution and in the presence of various concentrations of compounds.
T2 sequence (P03951 388-625 limits assumed): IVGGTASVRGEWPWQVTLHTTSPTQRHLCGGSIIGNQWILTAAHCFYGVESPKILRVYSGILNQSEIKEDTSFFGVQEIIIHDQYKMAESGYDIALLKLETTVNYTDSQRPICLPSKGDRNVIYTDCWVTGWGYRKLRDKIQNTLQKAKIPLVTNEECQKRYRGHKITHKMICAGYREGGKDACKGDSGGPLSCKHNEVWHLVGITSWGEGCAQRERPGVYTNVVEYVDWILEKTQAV
T2 sequence (P03951 19-387 partner limits assumed): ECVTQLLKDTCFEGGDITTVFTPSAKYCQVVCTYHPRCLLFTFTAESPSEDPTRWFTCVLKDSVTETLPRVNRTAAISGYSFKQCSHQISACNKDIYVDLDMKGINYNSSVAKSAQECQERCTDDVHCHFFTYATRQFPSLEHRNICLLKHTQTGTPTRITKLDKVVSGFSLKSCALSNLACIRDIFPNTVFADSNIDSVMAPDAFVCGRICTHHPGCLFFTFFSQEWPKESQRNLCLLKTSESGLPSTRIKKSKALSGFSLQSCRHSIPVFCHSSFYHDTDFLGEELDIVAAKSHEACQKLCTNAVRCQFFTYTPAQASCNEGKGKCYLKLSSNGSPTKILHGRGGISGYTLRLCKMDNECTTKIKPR
as §1
A buffer containing 140 mM NaCl, 20 mM HEPES, and 0.1% PEG 6000 (pH 8.0) was placed in the wells of a 96-well plate, followed by the addition of factor Xa (final concentration, 2.5 nmol·L^–1) or XIa (final concentration 0.8 nmol·L^–1), the substrate S2765 (final concentration, 200 μmol·L^–1) or S2366 (final concentration, 200 μmol·L^–1), and a solution of the test compound in DMSO (final concentration, 30 μmol·L^–1; the DMSO content in the well was no more than 2%). The kinetics of the formation of p-nitroaniline were measured using a THERMOmax Microplate Reader (Molecular Devices Corporation, USA) using the absorption of light with a wavelength of 405 nm. The initial rate of substrate degradation was determined from the initial slope of the 4-nitroaniline-formation curve. The rate of substrate degradation by the enzyme in the presence of the inhibitor was expressed as a percentage relative to the rate of substrate degradation in the absence of the inhibitor. The data obtained were processed using GraphPad Prism and OriginPro 8 software.

Assay [3] addresses T2, factor XIa. Details: method as in earlier work. Conditions: known actives used in validation of docking protocol, ref [1]-[6] of Table S2, column Ligand ID, cited from earlier work.
The target in assay [4] is T1, factor Xa. Particulars: cited from earlier work.

T1 sequence (P00742 235-488 limits assumed): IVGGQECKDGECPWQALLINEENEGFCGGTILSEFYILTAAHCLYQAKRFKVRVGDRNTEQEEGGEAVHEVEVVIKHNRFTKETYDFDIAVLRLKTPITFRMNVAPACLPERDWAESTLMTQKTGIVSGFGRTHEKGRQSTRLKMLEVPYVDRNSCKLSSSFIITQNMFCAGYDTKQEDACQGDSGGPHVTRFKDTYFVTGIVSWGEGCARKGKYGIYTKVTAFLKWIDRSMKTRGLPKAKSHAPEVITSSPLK
T1 sequence (P00742 41-179 partner limits assumed): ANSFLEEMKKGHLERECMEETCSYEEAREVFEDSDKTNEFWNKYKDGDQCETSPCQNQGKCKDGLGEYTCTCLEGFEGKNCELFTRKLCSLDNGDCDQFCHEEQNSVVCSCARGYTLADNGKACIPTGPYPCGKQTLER

The term inhibition denotes the relative decrease from the control value, in per cent. Turning to `C#CCN1C(=O)/C(=C2/C(=O)N3c4c2cc(F)cc4C(C)(c2ccc(Cl)cc2)CC3(C)C)SC1=S` (centres unmarked) [14b, (Z)-5-(6-(4-Chlorophenyl)-8-fluoro-4,4,6-trimethyl-2-oxo-5,6-dihydro-4H-pyrrolo[3,2,1-ij]quinolin-1(2H)-ylidene)-3-(prop-2-yn-1-yl)-2-thioxothiazolidin-4-one], the inhibition at 30 µM in assay [1] is 49%; in assay [2], 17%.
Regarding `CCOc1cc2c3c(c1)C(C)CC(C)(C)N3C(=O)/C2=C1\NC(=S)NC1=O` (centres unmarked) [16a, (Z)-8-Ethoxy-4,4,6-trimethyl-1-(5-oxo-2-thioxoimidazolidin-4-ylidene)-5,6-dihydro-4H-pyrrolo[3,2,1-ij]quinolin-2(1H)-one], the inhibition at 30 µM in assay [1] was 2%; in assay [2], 6%.
The like results for `Cc1cc2c3c(c1)C(C)CC(C)(C)N3C(=O)/C2=C1\NC(=S)NC1=O` (centres unmarked) [16b, (Z)-4,4,6,8-Tetramethyl-1-(5-oxo-2-thioxoimidazolidin-4-ylidene)-5,6-dihydro-4H-pyrrolo[3,2,1-ij]quinolin-2(1H)-one] were, in that order, 31% and 5%.
For `CC1(c2ccccc2)CC(C)(C)N2C(=O)/C(=C3\NC(=S)NC3=O)c3cccc1c32` (centres unmarked) [16c, (Z)-4,4,6-Trimethyl-1-(5-oxo-2-thioxoimidazolidin-4-ylidene)-6-phenyl-5,6-dihydro-4H-pyrrolo[3,2,1-ij]quinolin-2(1H)-one], the inhibition at 30 µM in assay [1] came out at 45%; in assay [2], 57%.
The like results for `CC1(c2ccccc2)CC(C)(C)N2C(=O)/C(=C3\NC(=S)NC3=O)c3cc(F)cc1c32` (centres unmarked) [16d, (Z)-8-Fluoro-4,4,6-trimethyl-1-(5-oxo-2-thioxoimidazolidin-4-ylidene)-6-phenyl-5,6-dihydro-4H-pyrrolo[3,2,1-ij]quinolin-2(1H)-one] were, in that order, 17% and 2%.
As for `Cc1cc2c3c(c1)C(C)(c1ccc(Cl)cc1)CC(C)(C)N3C(=O)/C2=C1\NC(=S)NC1=O` (centres unmarked) [16e, (Z)-6-(4-Chlorophenyl)-4,4,6,8-tetramethyl-1-(5-oxo-2-thioxoimidazolidin-4-ylidene)-5,6-dihydro-4H-pyrrolo[3,2,1-ij]quinolin-2(1H)-one], the inhibition at 30 µM in assay [1] turned out to be 59%; in assay [2], 86%.
In general, Ki refers to the dissociation constant of the complex between target and ligand, obtained from inhibition or displacement. On to `CC(C)CC(=O)Nc1cc(-c2ccc(C(N)=O)cc2C(=O)O)cc([C@@H]2C[C@](C)(c3ccccc3)c3cc(C(=N)N)ccc3N2)c1` [BMS-654457], for which the Ki in assay [3] (read-out: Ki, factor XIa (Table S2, values in brackets)) was 0.2 nM.
A word on the IC50: it is the concentration that inhibits the measured activity by half. For the molecule `CS(=O)(=O)c1ccccc1-c1ccc(N2CC[C@H](NS(=O)(=O)CCc3ccc(Cl)s3)C2=O)c(F)c1` [GSV], in assay [4] (known actives of crystal complexes used in validation of docking protocol, no reference given, read-out: IC50, factor Xa (Table S2)), the IC50 was 0.2 nM.
As for `Cc1cc(=O)[nH]c2ccc(Cl)cc12` [MVN], the IC50 in assay [3] is over 1.1 nM.
Consider `O=C(NC[C@H]1CN(c2ccc(N3CCOCC3=O)cc2)C(=O)O1)c1ccc(Cl)s1` [Rivaroxaban, reference compound], for which the inhibition at 30 µM in assay [2] came to 8%. Further, the “factor-Xa inhibitor potency in words” value in assay [4] was “subnanomolar”.
